Results as given in patent publication US9359281B2, “Enantiomers of 2-hydroxy derivatives of fatty acids” (UNIVERSITAT DE LES ILLES BALEARS, priority 2011, dated 2016).

Experiments:
[1] = test system: PC3 cells; test: Cell growth inhibition, PC3; type: cell-based, human; design: key to Effect (anti-proliferation effect): +: inhibition of cell growth; −: absence of effect; settings: for IC50: PC3, sodium salt form
Description: (§1) At this respect, concentrations which inhibit growth of tumour cells (IC50) are lower for the enantiomer S ([−]) in all studied tumour lines (Table 5). […] In all of the cases, the molecules employed were in the form of sodium salt.

[2] = test system: 1321N1 cells; test: Levels of SM in cell membranes, 1321N1; type: cell-based, human
Protocol: (§2) At the same time, we have studied the anti-tumoral effect on these and other tumoral lines (see Table 2). The cells were treated in vehicle (water with 5% ethanol, control) or with compound 2OHOA for 24 hours in a concentration of 200 μM. The values of the ordinate axis represent the average±ESM (error standard mean for a number of experiments n=3-5) of SM levels (percent of total phospholipids), determined by chromatographic processes (followed by spectroscopy and image analysis), as a percentage of the total number of lipids compared with untreated cells (control). […] In addition to the techniques for measuring enzyme activity and levels of SM described above, other techniques have been tested which lead to very similar results as, gas chromatography, confocal microscopy, fluorescence spectroscopy, etc.
(§3) The levels of SM, cultivated in the absence (control) or presence of 200 μM of [−]2OHOA, in normal cell membranes (MRC-5 and IMR90) were measured, and also in several types of tumoral cells (see Table 2). In all cases, we detected that the membranes of tumoral cells have SM levels of about half or a third of that in normal cells (FIG. 1). […] For example, the spectrophotometry determination of solution fluorescence of the SM levels is a very simple, quick and efficient analysis method (FIG. 1D). […]

[3] = test system: SF767 cells; test: Cell growth inhibition, SF767; type: cell-based, human; design: key to Effect (anti-proliferation effect): +: inhibition of cell growth; −: absence of effect; settings: for IC50: SF767, sodium salt form
Description: as §1

[4] = test system: MDA-MB-231 cells; test: Cell growth inhibition, MDA-MB-231; type: cell-based, human; design: key to Effect (anti-proliferation effect): +: inhibition of cell growth; −: absence of effect; settings: for IC50: MDA-MB-231, sodium salt form
Description: as §1

[5] = test system: U118 cells; test: Levels of SM in cell membranes, U118; type: cell-based, human; design: SM levels in the cell membrane (activation of enzyme EC 2.7.8.27): dose or concentration left out as unconfirmed; settings: for SM levels in the cell membrane (activation of enzyme EC 2.7.8.27): U118, 24 hours
[6] = test system: Jurkat cells; test: Levels of SM in cell membranes, Jurkat; type: cell-based, human
Protocol: as §2, §3

[7] = test system: A549 cells; test: Levels of SM in cell membranes, A549; type: cell-based, human
Protocol: as §2, §3

[8] = test system: hypertense rats (strain SHR); test: Systolic arterial pressure in SHR rats; type: in vivo; settings: 600 mg/kg every 12 h, 15 days, orally
Protocol: B. Effects on arterial pressure: hypertense rats (strain SHR) were treated with 2OHOA racemic (+/−) and its optic isomers [−]2OHOA and [+]2OHOA (600 mg/kg every 12 h, 15 days, orally). […] Values of average±EEM systolic pressure (n=6) are shown.
What is more, we studied the effect of the isomers above on arterial pressure, body weight, and the level of cholesterol, triglycerides and glycemia (glucose in plasma) in SHR rats SHR (FIGS. 8B, 8C and 8D and 8E). […] Similarly, during 1 and 5 days of treatment, rats treated with the racemic loosed 11 gram of weight (approximately a 3% of their body weight), whereas animals of the group treated with enantiomer [−]2OHOA loosed 21 grams and animals of the group treated with enantiomer [+]2OHOA only loosed 7 grams of weight. On the other hand, a higher effect of enantiomer [+]2OHOA in the reduction of triglyceride (TG) and total cholesterol (CHOt) levels was observed (FIG. 8D) At this respect, plasmatic basal levels of TG in SHR rats are of 108 mg/dl and were reduced to 56 mg/dl after 2 weeks treatment […]. On the other hand, treatment with enantiomer [+]2OHOA inducted a reduction of plasmatic TG levels to 47 mg/dl, whereas enantiomer [−]2OHOA only produced a modest reduction to 81 mg/dl. […]

[9] = test system: SF767 cells; test: Levels of SM in cell membranes, SF767; type: cell-based, human
Protocol: as §2, §3

[10] = test system: human glioma (SF767) cells; test: Volume of human glioma (SF767) tumours in immuno-depressed mice; type: in vivo; settings: for Effect: variation in the size of the tumour compared with untreated animals: 15 days; for decrease in the volume of the tumour: 200 mg/kg, 15 days orally
Description: This example recounts the study carried out on immuno-depressed mice infected with human glioma (SF767) cells and treated for 15 days (orally) with the indicated dose (Table 3).

[11] = test system: MRC-5 cells; test: Levels of SM in cell membranes, MRC-5; type: cell-based, human
Protocol: as §2, §3

[12] = test system: SH-SY5Y cells; test: Cell growth inhibition, SH-SY5Y; type: cell-based, human; design: key to Effect (anti-proliferation effect): +: inhibition of cell growth; −: absence of effect; settings: for IC50: SH-SY5Y, sodium salt form
Description: as §1

[13] = test system: C-6 cells; test: Cell growth inhibition, C-6; type: cell-based, rat; design: key: +: inhibition of cell growth; −: absence of effect
[14] = test system: IMR90 cells; test: Levels of SM in cell membranes, IMR90; type: cell-based, human; settings: IMR90 non-tumoral fibroblast, 200 μM [−]2OHOA
Protocol: (§4) The levels of SM, cultivated in the absence (control) or presence of 200 μM of [−]2OHOA, in normal cell membranes (MRC-5 and IMR90) were measured, and also in several types of tumoral cells (see Table 2). In all cases, we detected that the membranes of tumoral cells have SM levels of about half or a third of that in normal cells (FIG. 1). We can therefore assert that SM concentration is a biomarker which indicates tumorgenesis in human cells. On the other hand, treatments with the molecules of the present invention induce an increase of SM in the tumour cells which is not naturally occurring. […] For example, the spectrophotometry determination of solution fluorescence of the SM levels is a very simple, quick and efficient analysis method (FIG. 1D). Thus, this invention has generated a method for diagnosis for detecting the described pathological processes and pathologies in which there are SM level changes, and also for monitoring the efficiency of the therapy using molecules of the present invention and others of similar activity. Based on this knowledge, this invention also includes kits for diagnosing these diseases.

[15] = test system: T98G cells; test: Cell growth inhibition, T98G; type: cell-based, human; design: key: +: inhibition of cell growth; −: absence of effect
[16] = test system: PC3 cells; test: Levels of SM in cell membranes, PC3; type: cell-based, human; settings: PC3, 200 μM [−]2OHOA
Protocol: as §4

[17] = test system: MDA-MB-231 cells; test: Levels of SM in cell membranes, MDA-MB-231; type: cell-based, human; settings: MDA-MB-231, 200 μM [−]2OHOA
Protocol: as §4

| Structure (SMILES) | SM levels in the cell membrane (activation of enzyme EC 2.7.8.27) [5] | effect on systolic arterial pressure [8] | Effect: variation in the size of the tumour compared with untreated animals ([10]; 50 mg/kg orally) | Effect: variation in the size of the tumour compared with untreated animals ([10]; 75 mg/kg orally) | Effect: variation in the size of the tumour compared with untreated animals ([10]; 100 mg/kg orally) [%] | Effect: variation in the size of the tumour compared with untreated animals ([10]; 150 mg/kg orally) | Effect: variation in the size of the tumour compared with untreated animals ([10]; 200 mg/kg orally) [%] | decrease in the volume of the tumour [10] [%] | Effect: variation in the size of the tumour compared with untreated animals ([10]; 400 mg/kg orally) [%] | Effect: variation in the size of the tumour compared with untreated animals ([10]; 600 mg/kg orally) | IC50 [1] [µM] | IC50 [3] [µM] | IC50 [4] [µM] | IC50 [12] [µM] | further results |
| --- | --- | --- | --- | --- | --- | --- | --- | --- | --- | --- | --- | --- | --- | --- | --- |
| CCCCCCCC/C=C\CCCCCCC(O)C(=O)O (racemic) [2OHOA, 2-hydroxyoleic acid] | significant increases in SM levels | considerable therapeutic effect but of lower amplitude | +2% | −7% | −8 | −17% | −23 | 23 | −39 | −37% |  |  |  |  | IC50 ([1]; Homo sapiens, PC-3): 138 µM; synthesis of SM ([2]; 1321N1, 200 μM, 24 hours): significant increase; IC50 ([3]; Homo sapiens): 215 µM; IC50 ([4]; Homo sapiens): 244 µM; synthesis of SM ([5]; U118, 200 μM, 24 hours): significant increase; synthesis of SM ([6]; 200 μM, 24 hours): significant increase; synthesis of SM ([7]; A549, 200 μM, 24 hours): significant increase; synthesis of SM ([9]; SF767, 200 μM, 24 hours): significant increase; synthesis of SM ([11]; MRC5, 200 μM, 24 hours): not in non-tumoral cells; IC50 ([12]; Homo sapiens): 119 µM |
| CCCCCCCC/C=C\CCCCCCC(O)C(=O)O (centres unmarked) [[−]2OHOA] [[−] HOOC—HOCH—(CH2)6—(CH═CH—CH2)1—(CH2)6—CH3] | even greater increases in SM levels |  | −35% | −54% | −65 | −78% | −89 | 89 | −91 | −86% | 87 | 102 | 145 | 64.4 | Effect (anti-proliferation effect) ([1]; PC3): +; % SM after treatment ([2]; 1321N1, 200 μM [−]2OHOA): 27%; Effect (anti-proliferation effect) ([3]; SF767): +; Effect (anti-proliferation effect) ([4]; MDA-MB-231): +; % SM after treatment ([5]; U118, 200 μM [−]2OHOA): 28%; % SM after treatment ([6]; 200 μM [−]2OHOA): 27%; % SM after treatment ([7]; A549, 200 μM [−]2OHOA): 33%; Effect (anti-proliferation effect) [13]: +; % SM after treatment ([9]; SF767, 200 μM [−]2OHOA): 24%; % SM after treatment [14]: 23%; Effect (anti-proliferation effect) [15]: +; % SM after treatment ([11]; MRC-5 non-tumoral fibroblast, 200 μM [−]2OHOA): 24%; Effect (anti-proliferation effect) ([12]; SH-SYSY): +; % SM after treatment [16]: 27%; % SM after treatment [17]: 31% |
| CCCCCCCC/C=C\CCCCCCC(O)C(=O)O (centres unmarked) [[+]2OHOA] [[+]HOOC—HOCH—(CH2)6—(CH═CH—CH2)1—(CH2)6—CH3] | decrease in the level of SM in membranes | considerable therapeutic effect but of lower amplitude | −2% | +7% | −3 | +1% | −4 |  | −2 | +3% | 233 | 304 | 328 | 193 | activity on tumour volume after 15 days of treatment ([10]; indicated doses (50-600 mg/kg), orally): showed no activity |
